{
  "source": "patent US9884868B2",
  "about": "“TGF-beta inhibitors” (Rigel Pharmaceuticals, Inc., priority 2015, dated 2018)",
  "note": "Where a name gives a salt, the structure may show the parent alone.",
  "data": [
    {"molecular_target": "HIS-TGF-βR1 T204D (Homo sapiens (Human), UniProt P36897, T204D)", "sequence (P36897 34-503 T204D)": "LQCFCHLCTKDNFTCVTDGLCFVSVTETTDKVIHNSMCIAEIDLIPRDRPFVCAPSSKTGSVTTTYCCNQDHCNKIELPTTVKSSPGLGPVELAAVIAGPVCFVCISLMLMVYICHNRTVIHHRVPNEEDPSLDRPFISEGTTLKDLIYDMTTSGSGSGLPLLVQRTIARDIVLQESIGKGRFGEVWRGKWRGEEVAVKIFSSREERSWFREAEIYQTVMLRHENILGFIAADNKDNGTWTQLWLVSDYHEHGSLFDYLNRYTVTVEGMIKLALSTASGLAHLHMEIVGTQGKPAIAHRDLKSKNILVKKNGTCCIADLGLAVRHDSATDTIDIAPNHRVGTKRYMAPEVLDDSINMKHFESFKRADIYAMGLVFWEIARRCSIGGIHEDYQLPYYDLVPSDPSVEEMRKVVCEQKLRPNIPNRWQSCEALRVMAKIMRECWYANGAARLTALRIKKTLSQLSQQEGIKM", "assay": "HTRF probe displacement assay with HIS-TGF-βR1 T204D", "details": "read-out: TGFbr1 IC50; HTRF probe displacement, 1 nM HIS-TGF-βR1 T204D, 1 hour at room temperature", "units": {"IC50": "nM"}, "values": [
      {"smiles": "NC(=O)c1cnc2ccc(-c3c(-c4ccc(F)c(Cl)c4)ncn3CCCO)nn12", "note": "[142′, 6-(4-(3-chloro-4-fluorophenyl)-1-(3-hydroxypropyl)-1H-imidazol-5-yl)imidazo[1,2-b]pyridazine-3-carboxamide]", "IC50": 1.6},
      {"smiles": "COc1cc(-c2ncn(CC(F)F)c2-c2ccc3ncc(C#N)n3n2)ccc1F", "note": "[262′, 6-(1-(2,2-difluoroethyl)-4-(4-fluoro-3-methoxyphenyl)-1H-imidazol-5-yl)imidazo[1,2-b]pyridazine-3-carbonitrile]", "IC50": 5.2},
      {"smiles": "Fc1ccc(-c2ncn(CC(F)F)c2-c2ccc3ncc(-c4cnco4)n3n2)cc1", "note": "[Example 216′, 5-(6-(1-(2,2-difluoroethyl)-4-(4-fluorophenyl)-1H-imidazol-5-yl)imidazo[1,2-b]pyridazin-3-yl)oxazole]", "IC50": 0.9},
      {"smiles": "N#Cc1cnc2ccc(-c3c(-c4ccc(F)c(Cl)c4)ncn3CCCF)cn12", "note": "[101′, 6-(4-(3-chloro-4-fluorophenyl)-1-(3-fluoropropyl)-1H-imidazol-5-yl)imidazo[1,2-a]pyridine-3-carbonitrile]", "IC50": 23.2},
      {"smiles": "N#Cc1cnc2ccc(-c3c(-c4ccc(F)c(Cl)c4)ncn3C3CC3)nn12", "note": "[36′, 6-(4-(3-chloro-4-fluorophenyl)-1-cyclopropyl-1H-imidazol-5-yl)imidazo[1,2-b]pyridazine-3-carbonitrile]", "IC50": 1.3},
      {"smiles": "NC(=O)c1cnc2ccc(-c3c(-c4ccc(F)cc4)nc4n3CCNC4)cn12", "note": "[Example 290′, 6-(2-(4-fluorophenyl)-5,6,7,8-tetrahydroimidazo[1,2-60]pyrazin-3-yl)imidazo[1,2-a]pyridine-3-carboxamide]", "IC50": 21.6},
      {"smiles": "Fc1ccc(-c2ncn(CC(F)F)c2-c2ccc3nncn3c2)cc1", "note": "[Example 281′, 6-(1-(2,2-difluoroethyl)-4-(4-fluorophenyl)-1H-imidazol-5-yl)-[1,2,4]triazolo[4,3-a]pyridine]", "IC50": 522},
      {"smiles": "CC(C)(O)Cn1cnc(-c2ccc(F)cc2)c1-c1ccc2ncc(C#N)n2n1", "note": "[26′, 6-(4-(4-fluorophenyl)-1-(2-hydroxy-2-methylpropyl)-1H-imidazol-5-yl)imidazo[1,2-b]pyridazine-3-carbonitrile]", "IC50": 92.6},
      {"smiles": "CC(CCO)n1cnc(-c2ccc(F)cc2)c1-c1ccc2ncc(C(N)=O)n2c1", "note": "(centres unmarked) [154′, 6-(4-(4-fluorophenyl)-1-(4-hydroxybutan-2-yl)-1H-imidazol-5-yl)imidazo[1,2-a]pyridine-3-carboxamide]", "IC50": 2.3},
      {"smiles": "C[C@@H](O)Cn1cnc(-c2ccc(F)cc2)c1-c1ccc2ncc(C(N)=O)n2c1", "note": "[155′, (R)-6-(4-(4-fluorophenyl)-1-(2-hydroxypropyl)-1H-imidazol-5-yl)imidazo[1,2-a]pyridine-3-carboxamide]", "IC50": 5.5},
      {"smiles": "N#Cc1cnc2ccc(-c3c(-c4ccc(F)c(Cl)c4)ncn3CCCl)nn12", "note": "[60′, 6-(4-(3-chloro-4-fluorophenyl)-1-(2-chloroethyl)-1H-imidazol-5-yl)imidazo[1,2-b]pyridazine-3-carbonitrile]", "IC50": 0.9},
      {"smiles": "NC(=O)c1cnc2ccc(-c3c(-c4ccc(F)cc4)ncn3C3CC(F)(F)C3)nn12", "note": "[106′, 6-(1-(3,3-difluorocyclobutyl)-4-(4-fluorophenyl)-1H-imidazol-5-yl)imidazo[1,2-b]pyridazine-3-carboxamide]", "IC50": 6.1},
      {"smiles": "N#Cc1cnc2ccc(-c3c(-c4ccccc4O)ncn3CC(F)F)nn12", "note": "[248′, 6-(1-(2,2-difluoroethyl)-4-(2-hydroxyphenyl)-1H-imidazol-5-yl)imidazo[1,2-b]pyridazine-3-carbonitrile]", "IC50": 0.7},
      {"smiles": "NC(=O)c1cnc2ccc(-c3c(-c4ccc(F)c(Cl)c4)ncn3CC(F)F)nn12", "note": "[113′, 6-(4-(3-chloro-4-fluorophenyl)-1-(2,2-difluoroethyl)-1H-imidazol-5-yl)imidazo[1,2-b]pyridazine-3-carboxamide]", "IC50": 0.9},
      {"smiles": "NC(=O)c1cnc2ccc(-c3c(-c4ccc(F)cc4)ncn3C(CO)CO)nn12", "note": "[129′, 6-(1-(1,3-dihydroxypropan-2-yl)-4-(4-fluorophenyl)-1H-imidazol-5-yl)imidazo[1,2-b]pyridazine-3-carboxamide]", "IC50": 5.1},
      {"smiles": "N#Cc1cnc2ccc(-c3c(-c4cc(Cl)ccc4F)ncn3CC(F)F)cn12", "note": "[228′, 6-(4-(5-chloro-2-fluorophenyl)-1-(2,2-difluoroethyl)-1H-imidazol-5-yl)imidazo[1,2-a]pyridine-3-carbonitrile]", "IC50": 3.7},
      {"smiles": "Fc1ccc(-c2ncn(C3CC(F)(F)C3)c2-c2ccc3nccn3c2)cc1Cl", "note": "[184′, 6-(4-(3-chloro-4-fluorophenyl)-1-(3,3-difluorocyclobutyl)-1H-imidazol-5-yl)imidazo[1,2-a]pyridine]", "IC50": 54.5},
      {"smiles": "CC[C@@H](CF)n1cnc(-c2ccc(F)cc2)c1-c1ccc2ncc(C(N)=O)n2n1", "note": "[128′, (S)-6-(1-(1-fluorobutan-2-yl)-4-(4-fluorophenyl)-1H-imidazol-5-yl)imidazo[1,2-b]pyridazine-3-carboxamide]", "IC50": 1.5},
      {"smiles": "NC(=O)c1cnc2ccc(-c3c(-c4ccc(F)cc4)ncn3CCCO)cn12", "note": "[165′, 6-(4-(4-fluorophenyl)-1-(3-hydroxypropyl)-1H-imidazol-5-yl)imidazo[1,2-a]pyridine-3-carboxamide]", "IC50": 4.9},
      {"smiles": "CC(CO)n1cnc(-c2ccc(F)cc2)c1-c1ccc2ncc(C(N)=O)n2c1", "note": "(centres unmarked) [175′, 6-(4-(4-fluorophenyl)-1-(1-hydroxypropan-2-yl)-1H-imidazol-5-yl)imidazo[1,2-a]pyridine-3-carboxamide]", "IC50": 2},
      {"smiles": "C[C@@H](O)Cn1cnc(-c2ccc(F)cc2)c1-c1ccc2ncc(C#N)n2c1", "note": "[68′, (R)-6-(4-(4-fluorophenyl)-1-(2-hydroxypropyl)-1H-imidazol-5-yl)imidazo[1,2-a]pyridine-3-carbonitrile]", "IC50": 301},
      {"smiles": "CC(C)OCCn1cnc(-c2ccc(F)cc2)c1-c1ccc2ncc(C(N)=O)n2n1", "note": "[124′, 6-(4-(4-fluorophenyl)-1-(2-isopropoxyethyl)-1H-imidazol-5-yl)imidazo[1,2-b]pyridazine-3-carboxamide]", "IC50": 2.5},
      {"smiles": "CNC(=O)c1cnc2ccc(-c3c(-c4ccc(F)cc4)ncn3CC(F)F)nn12", "note": "[206′, 6-(1-(2,2-difluoroethyl)-4-(4-fluorophenyl)-1H-imidazol-5-yl)-N-methylimidazo[1,2-b]pyridazine-3-carboxamide]", "IC50": 0.9},
      {"smiles": "Nc1nc(-c2ccc(F)cc2)c(-c2ccc3nccn3c2)n1CC(F)F", "note": "[Example 296′, 1-(2,2-difluoroethyl)-4-(4-fluorophenyl)-5-(imidazo[1,2-a]pyridin-6-yl)-1H-imidazol-2-amine, 2 HCl]", "IC50": 109},
      {"smiles": "N#Cc1cnc2ccc(-c3c(-c4ccccc4C(N)=O)ncn3CC(F)F)nn12", "note": "[251′, 2-(5-(3-cyanoimidazo[1,2-b]pyridazin-6-yl)-1-(2,2-difluoroethyl)-1H-imidazol-4-yl)benzamide]", "IC50": 73.5},
      {"smiles": "CNCc1cnc2ccc(-c3c(-c4ccc(F)cc4)ncn3CC(F)F)nn12", "note": "[Example 196′]", "IC50": 23.8},
      {"smiles": "N#Cc1cnc2ccc(-c3c(-c4ccccc4CO)ncn3CC(F)F)nn12", "note": "[253′, 6-(1-(2,2-difluoroethyl)-4-(2-(hydroxymethyl)phenyl)-1H-imidazol-5-yl)imidazo[1,2-b]pyridazine-3-carbonitrile]", "IC50": 7},
      {"smiles": "N#Cc1cnc2ccc(-c3c(-c4cc(Cl)cc(Cl)c4)ncn3CC(F)F)nn12", "note": "[238′, 6-(4-(3,5-dichlorophenyl)-1-(2,2-difluoroethyl)-1H-imidazol-5-yl)imidazo[1,2-b]pyridazine-3-carbonitrile]", "IC50": 39.7},
      {"smiles": "CC(C)Cn1cnc(-c2ccc(F)cc2)c1-c1ccc2ncc(C#N)n2c1", "note": "[82′, 6-(4-(4-fluorophenyl)-1-isobutyl-1H-imidazol-5-yl)imidazo[1,2-a]pyridine-3-carbonitrile]", "IC50": 71.6},
      {"smiles": "CC(CO)n1cnc(-c2ccc(F)cc2)c1-c1ccc2ncc(C(N)=O)n2c1", "note": "(centres unmarked) [152′, 6-(4-(4-fluorophenyl)-1-(1-hydroxypropan-2-yl)-1H-imidazol-5-yl)imidazo[1,2-a]pyridine-3-carboxamide]", "IC50": 1.1},
      {"smiles": "N#Cc1cc(-c2ncn(CC(F)F)c2-c2ccc3ncc(C#N)n3n2)ccc1F", "note": "[266′, 6-(4-(3-cyano-4-fluorophenyl)-1-(2,2-difluoroethyl)-1H-imidazol-5-yl)imidazo[1,2-b]pyridazine-3-carbonitrile]", "IC50": 7.9},
      {"smiles": "CCC(C)n1cnc(-c2ccc(F)cc2)c1-c1ccc2ncc(C(N)=O)n2c1", "note": "(centres unmarked) [174′, 6-(1-(sec-butyl)-4-(4-fluorophenyl)-1H-imidazol-5-yl)imidazo[1,2-a]pyridine-3-carboxamide]", "IC50": 0.6},
      {"smiles": "NC(=O)c1cnc2ccc(-c3c(-c4ccc(F)cc4)ncn3CC(F)F)cn12", "note": "[230′, 6-(1-(2,2-difluoroethyl)-4-(4-fluorophenyl)-1H-imidazol-5-yl)imidazo[1,2-a]pyridine-3-carboxamide]", "IC50": 1.7},
      {"smiles": "NC(=O)c1cnc2ccc(-c3c(-c4ccc(F)c(Cl)c4)ncn3C3CCOC3)nn12", "note": "(centres unmarked) [146′, 6-(4-(3-chloro-4-fluorophenyl)-1-(tetrahydrofuran-3-yl)-1H-imidazol-5-yl)imidazo[1,2-b]pyridazine-3-carboxamide]", "IC50": 1.7},
      {"smiles": "CC[C@@H](CO)n1cnc(-c2ccc(F)cc2)c1-c1ccc2ncc(C#N)n2n1", "note": "[Example 6′, (S)-6-(4-(4-fluorophenyl)-1-(1-hydroxybutan-2-yl)-1H-imidazol-5-yl)imidazo[1,2-b]pyridazine-3-carbonitrile]", "IC50": 5},
      {"smiles": "CC(C)(C)Cn1cnc(-c2ccc(F)cc2)c1-c1ccc2ncc(C#N)n2n1", "note": "[Example 270′, 6-(4-(4-fluorophenyl)-1-neopentyl-1H-imidazol-5-yl)imidazo[1,2-b]pyridazine-3-carbonitrile]", "IC50": 99.2},
      {"smiles": "NC(=O)c1cnc2ccc(-c3c(-c4ccc(F)c(Cl)c4)ncn3C[C@@H]3CCCO3)nn12", "note": "[145′, (S)-6-(4-(3-chloro-4-fluorophenyl)-1-((tetrahydrofuran-2-yl)methyl)-1H-imidazol-5-yl)imidazo[1,2-b]pyridazine-3-carboxamide]", "IC50": 2.2},
      {"smiles": "N#Cc1cnc2ccc(-c3c(-c4ccc5c(c4)OCO5)ncn3CC(F)F)nn12", "note": "[247′, 6-(4-(benzo[d][1,3]dioxol-5-yl)-1-(2,2-difluoroethyl)-1H-imidazol-5-yl)imidazo[1,2-b]pyridazine-3-carbonitrile]", "IC50": 14.3}
    ]}
  ]
}
